PubChem BioAssay AID1259408 (Genetic Toxicology Data Bank (GENE-TOX), 2018)
Activity calls are given as the source filed them. No rule for the calls is given here.

Test system: GENE-TOX genotoxicity assays, various organisms and cells
Assay: GENE-TOX mutagenicity studies
Conditions: for call: Assay Type: In vivo carcinogenicity studies
[1] = Species/Cell Type: Nonhuman, Assay Code: CCG-, Evaluation Type: Evaluation A (Pre-1980)
[2] = Species/Cell Type: Nonhuman, Assay Type: Sister-chromatid exchange (SCE) in vitro, Assay Code: SC2+, Evaluation Type: Evaluation B (Post-1980)
[3] = Species/Cell Type: Human diploid fibroblasts, Assay Type: Unscheduled DNA synthesis (UDS) in vitro, DNA effects, Assay Code: UDH-, Evaluation Type: Evaluation A (Pre-1980)
[4] = Species/Cell Type: Drosophila melanogaster, Assay Type: Sex-linked recessive lethal gene mutation, Assay Code: SRLT, Evaluation Type: Evaluation A (Pre-1980)

CN(C)c1ccc(N=NS(=O)(=O)O)cc1
mutagenic call (Species/Cell Type: Bacillus subtilis (H17 vs M45), Assay Type: Rec-assay, spot test, DNA effects (bacterial DNA repair), Assay Code: REW+, Evaluation Type: Evaluation A (Pre-1980)): active; positive
mutagenic call (Species/Cell Type: Escherichia coli WP2, Assay Type: Tryptophan reverse gene mutation, Assay Code: WP2+, Evaluation Type: Evaluation A (Pre-1980)): active; positive
mutagenic call (Species/Cell Type: Escherichia coli WP2 UVRA, Assay Type: Tryptophan reverse gene mutation, Assay Code: WPU+, Evaluation Type: Evaluation A (Pre-1980)): active; positive
mutagenic call (Species/Cell Type: Human lymphocytes, Assay Type: Sister-chromatid exchange (SCE) in vitro, Assay Code: SCL+D, Dose Response: With dose response, Evaluation Type: Evaluation B (Post-1980)): active; positive
mutagenic call (Species/Cell Type: Human, Assay Type: Sister-chromatid exchange (SCE) in vitro, Assay Code: SC1+D, Dose Response: With dose response, Evaluation Type: Evaluation B (Post-1980)): active; positive
call [1]: inactive; negative
mutagenic call [2]: active; positive
mutagenic call (Species/Cell Type: Salmonella typhimurium (one or more of the five standard strains: TA98, TA100, TA1535, TA1537, and TA1538), Assay Type: Histidine reverse gene mutation, Ames assay, Assay Code: SAL+, Evaluation Type: Evaluation A (Pre-1980)): active; positive

COC(F)(F)C(Cl)Cl
mutagenic call (Species/Cell Type: Mouse, Sex: Male, Assay Type: Sperm morphology, Assay Code: SPI-, Evaluation Type: Evaluation A (Pre-1980)): inactive; negative
mutagenic call (Species/Cell Type: Nonhuman, Assay Type: Sister-chromatid exchange (SCE) in vitro, Assay Code: SC2T, Evaluation Type: Evaluation B (Post-1980)): no conclusion
mutagenic call (Species/Cell Type: Salmonella typhimurium (one or more of the five standard strains: TA98, TA100, TA1535, TA1537, and TA1538), Assay Type: Histidine reverse gene mutation, Ames assay, Assay Code: SALT, Evaluation Type: Evaluation A (Pre-1980)): no conclusion

C=CCC1=C(C)C(OC(=O)[C@@H]2[C@@H](C=C(C)C)C2(C)C)CC1=O (some centres not stated)
mutagenic call [3]: inactive; negative
mutagenic call (Species/Cell Type: Saccharomyces cerevisiae, Assay Type: Mitotic recombination or gene conversion, Assay Code: YEH-, Evaluation Type: Evaluation A (Pre-1980)): inactive; negative

Nc1ccc2c(n1)[nH]c1ccccc12
mutagenic call (Species/Cell Type: Human, Assay Type: Sister-chromatid exchange (SCE) in vitro, Assay Code: SC1+D*, Activation: With metabolic activation, Dose Response: With dose response, Evaluation Type: Evaluation B (Post-1980)): active; positive

Cc1cc(C(C)(C)C)c(O)c(C(C)(C)C)c1
mutagenic call (Species/Cell Type: Allium cepa, Assay Type: Chromosome aberrations, Assay Code: ALC+, Evaluation Type: Evaluation A (Pre-1980)): active; positive
mutagenic call (Species/Cell Type: Drosophila melanogaster, Assay Type: Aneuploidy, whole sex chromosome loss, chromosome aberrations, Assay Code: DAC+M, Evaluation Type: Evaluation A (Pre-1980)): active; positive
mutagenic call (Species/Cell Type: Drosophila melanogaster, Assay Type: Sex-linked recessive lethal gene mutation, Assay Code: SRL-, Evaluation Type: Evaluation A (Pre-1980)): inactive; negative
mutagenic call (Species/Cell Type: Drosophila melanogaster, Sex: Male, Assay Type: Heritable translocation test, chromosome aberrations, Assay Code: DHTT, Evaluation Type: Evaluation A (Pre-1980)): no conclusion
mutagenic call (Species/Cell Type: Mammalian polychromatic erythrocytes, Assay Type: Micronucleus test, chromosome aberrations, Assay Code: MNTT, Evaluation Type: Evaluation A (Pre-1980)): no conclusion
mutagenic call (Species/Cell Type: Mouse, Sex: Male, Assay Type: Specific locus test, gene mutation, Assay Code: SLT-, Evaluation Type: Evaluation A (Pre-1980)): inactive; negative
mutagenic call (Species/Cell Type: Mouse, Sex: Male, Assay Type: Sperm morphology, Assay Code: SPIT, Evaluation Type: Evaluation A (Pre-1980)): no conclusion
mutagenic call (Species/Cell Type: Salmonella typhimurium (one or more of the five standard strains: TA98, TA100, TA1535, TA1537, and TA1538), Assay Type: Histidine reverse gene mutation, Ames assay, Assay Code: SAL-, Evaluation Type: Evaluation A (Pre-1980)): inactive; negative

C=C1C[C@@]23CC[C@H]4[C@@](C)(CCC[C@@]4(C)C(=O)O[C@@H]4O[C@H](CO)[C@@H](O)[C@H](O)[C@H]4O)[C@@H]2CC[C@]1(O[C@@H]1O[C@H](CO)[C@@H](O)[C@H](O)[C@H]1O[C@@H]1O[C@H](CO)[C@@H](O)[C@H](O)[C@H]1O)C3
mutagenic call (Species/Cell Type: Human, Assay Type: Sister-chromatid exchange (SCE) in vitro, Assay Code: SC1T, Evaluation Type: Evaluation B (Post-1980)): no conclusion

Cc1cc(N(C)CCCl)ccc1N=Nc1ccccc1C(=O)O
mutagenic call [4]: no conclusion

CCN(CC)Cc1cc(Br)ccc1OCC(=O)N/N=C\c1ccccc1
mutagenic call (Species/Cell Type: Saccharomyces cerevisiae, Assay Type: Reverse gene mutation, Assay Code: YERT, Evaluation Type: Evaluation A (Pre-1980)): no conclusion

COCCOC1=C(N2CC2)C(=O)C(OCCOC)=C(N2CC2)C1=O
mutagenic call [4]: no conclusion
mutagenic call (Species/Cell Type: Nonhuman, Assay Type: Sister-chromatid exchange (SCE) in vitro, Assay Code: SC2+D, Dose Response: With dose response, Evaluation Type: Evaluation B (Post-1980)): active; positive

OC[C@@H](O)[C@@H](O)[C@H](O)[C@H](O)CO
mutagenic call (Species/Cell Type: Escherichia coli WP2 UVRA, Assay Type: Tryptophan reverse gene mutation, Assay Code: WPU-*, Activation: With metabolic activation, Evaluation Type: Evaluation A (Pre-1980)): inactive; negative
call [1]: inactive; negative

Oc1cccc2ncccc12
mutagenic call (Species/Cell Type: Salmonella typhimurium (one or more of the five standard strains: TA98, TA100, TA1535, TA1537, and TA1538), Assay Type: Histidine reverse gene mutation, Ames assay, Assay Code: SAL+*, Activation: With metabolic activation, Evaluation Type: Evaluation A (Pre-1980)): active; positive

O=c1[nH]c(=O)n([C@H]2C[C@H](O)[C@@H](CO)O2)cc1F
mutagenic call (Species/Cell Type: Aspergillus nidulans, Assay Type: Aneuploidy, chromosome aberrations, Assay Code: ASNT, Evaluation Type: Evaluation A (Pre-1980)): no conclusion
mutagenic call (Species/Cell Type: Aspergillus nidulans, Assay Type: Mitotic recombination, Assay Code: ASG+, Evaluation Type: Evaluation A (Pre-1980)): active; positive
mutagenic call (Species/Cell Type: Chinese hamster lung (V79) cells, Assay Type: Forward gene mutation at the HPRT or ouabain locus, Assay Code: V79-, Evaluation Type: Evaluation A (Pre-1980)): inactive; negative
mutagenic call (Species/Cell Type: Drosophila melanogaster, Assay Type: Aneuploidy, sex chromosome gain, chromosome aberrations, Assay Code: DAG+F, Evaluation Type: Evaluation A (Pre-1980)): active; positive
mutagenic call (Species/Cell Type: Drosophila melanogaster, Assay Type: Aneuploidy, whole sex chromosome loss, chromosome aberrations, Assay Code: DAC+F, Evaluation Type: Evaluation A (Pre-1980)): active; positive
mutagenic call [4]: no conclusion
mutagenic call (Species/Cell Type: Escherichia coli polA (W3119 vs P3478), Assay Type: Rec-assay, DNA effects (bacterial DNA repair), Assay Code: RE1-, Evaluation Type: Evaluation A (Pre-1980)): inactive; negative
mutagenic call (Species/Cell Type: Glycine max (soybean), Assay Type: Gene mutation, Assay Code: GLM+, Evaluation Type: Evaluation A (Pre-1980)): active; positive
mutagenic call [3]: inactive; negative
mutagenic call (Species/Cell Type: Human lymphocytes, Assay Type: Sister-chromatid exchange (SCE) in vitro, Assay Code: SCLT, Evaluation Type: Evaluation B (Post-1980)): no conclusion
mutagenic call (Species/Cell Type: Human, Assay Type: Sister-chromatid exchange (SCE) in vitro, Assay Code: SC1+, Evaluation Type: Evaluation B (Post-1980)): active; positive
mutagenic call (Species/Cell Type: Mammalian polychromatic erythrocytes, Assay Type: Micronucleus test, chromosome aberrations, Assay Code: MNT+U, Dose Response: Unconfirmed positive response, Evaluation Type: Evaluation B (Post-1980)): active; positive
mutagenic call (Species/Cell Type: Mouse (C3H/10T1/2) cells, Assay Type: Cell transformation, Assay Code: CTH+, Evaluation Type: Evaluation A (Pre-1980)): active; positive
mutagenic call (Species/Cell Type: Neurospora crassa, Assay Type: Aneuploidy, chromosome aberrations, Assay Code: NEN-, Evaluation Type: Evaluation A (Pre-1980)): inactive; negative
call (Species/Cell Type: Nonhuman, Assay Code: CCGT, Evaluation Type: Evaluation A (Pre-1980)): no conclusion
mutagenic call [2]: active; positive
mutagenic call (Species/Cell Type: Saccharomyces cerevisiae, Assay Type: Mitotic recombination or gene conversion, Assay Code: YEH+, Evaluation Type: Evaluation A (Pre-1980)): active; positive
mutagenic call (Species/Cell Type: Salmonella typhimurium, Assay Type: Forward and reverse gene mutation, host-mediated assay, Assay Code: HMA-, Evaluation Type: Evaluation A (Pre-1980)): inactive; negative
mutagenic call (Species/Cell Type: Syrian hamster embryo (SA7/SHE) cells, Assay Type: Cell transformation, viral enhanced, Assay Code: CT7+, Evaluation Type: Evaluation A (Pre-1980)): active; positive
mutagenic call (Species/Cell Type: Syrian hamster embryo (SHE) cells, Assay Type: Cell transformation, clonal assay, Assay Code: CTC-, Evaluation Type: Evaluation A (Pre-1980)): inactive; negative
mutagenic call (Species/Cell Type: Vicia faba, Assay Type: Chromosome aberrations, Assay Code: VIC+, Evaluation Type: Evaluation A (Pre-1980)): active; positive

[C-]#[N+]C(=C\c1ccc(O)cc1)/C(=C/c1ccc(O)cc1)[N+]#[C-]
mutagenic call (Species/Cell Type: Bacillus subtilis (H17 vs M45), Assay Type: Rec-assay, spot test, DNA effects (bacterial DNA repair), Assay Code: REWT, Evaluation Type: Evaluation A (Pre-1980)): no conclusion
